ChEMBL document CHEMBL2401713, “Discovery of bufadienolides as a novel class of ClC-3 chloride channel activators with antitumor activities” (J Med Chem, 2013)
Active and inactive are the calls of the source. No cut-off for these calls is given here.

Experiments:
H22 = assay: Cytotoxicity against mouse H22 cells expressing mutated alpha-1 Na+/K+-ATPase assessed as growth inhibition after 48 hrs by MTT assay; assay type: functional, cell-based; details: H22, 48 h
CCRF S-180 = assay: Cytotoxicity against mouse S180 cells expressing mutated alpha-1 Na+/K+-ATPase assessed as growth inhibition after 48 hrs by MTT assay; assay type: functional, cell-based; details: CCRF S-180, 48 h
HepG2 [1] = assay: Cytotoxicity against adriamycin-resistant human HepG2 cells assessed as growth inhibition after 48 hrs by MTT assay; assay type: functional, cell-based; details: HepG2, 48 h
[2] = Cytotoxicity against human CNE2Z cells assessed as growth inhibition after 48 hrs by MTT assay; assay type: functional, cell-based
HepG2 [3] = assay: Cytotoxicity against human HepG2 cells assessed as growth inhibition after 48 hrs by MTT assay; assay type: functional, cell-based; details: HepG2, 48 h
[4] = Cytotoxicity against human CNE1 cells assessed as growth inhibition after 48 hrs by MTT assay; assay type: functional, cell-based; details: CNE
[5] = target: T1, H(+)/Cl(-) exchange transporter 3 (Homo sapiens) (UniProt P51790); assay: Activation of ClC-3 in human CNE2Z cells assessed as increase in chloride current density at +80mV holding potential at 1 uM by whole-cell patch clamp method relative to vehicle-treated control; assay type: cell-based
T1 sequence (whole entry): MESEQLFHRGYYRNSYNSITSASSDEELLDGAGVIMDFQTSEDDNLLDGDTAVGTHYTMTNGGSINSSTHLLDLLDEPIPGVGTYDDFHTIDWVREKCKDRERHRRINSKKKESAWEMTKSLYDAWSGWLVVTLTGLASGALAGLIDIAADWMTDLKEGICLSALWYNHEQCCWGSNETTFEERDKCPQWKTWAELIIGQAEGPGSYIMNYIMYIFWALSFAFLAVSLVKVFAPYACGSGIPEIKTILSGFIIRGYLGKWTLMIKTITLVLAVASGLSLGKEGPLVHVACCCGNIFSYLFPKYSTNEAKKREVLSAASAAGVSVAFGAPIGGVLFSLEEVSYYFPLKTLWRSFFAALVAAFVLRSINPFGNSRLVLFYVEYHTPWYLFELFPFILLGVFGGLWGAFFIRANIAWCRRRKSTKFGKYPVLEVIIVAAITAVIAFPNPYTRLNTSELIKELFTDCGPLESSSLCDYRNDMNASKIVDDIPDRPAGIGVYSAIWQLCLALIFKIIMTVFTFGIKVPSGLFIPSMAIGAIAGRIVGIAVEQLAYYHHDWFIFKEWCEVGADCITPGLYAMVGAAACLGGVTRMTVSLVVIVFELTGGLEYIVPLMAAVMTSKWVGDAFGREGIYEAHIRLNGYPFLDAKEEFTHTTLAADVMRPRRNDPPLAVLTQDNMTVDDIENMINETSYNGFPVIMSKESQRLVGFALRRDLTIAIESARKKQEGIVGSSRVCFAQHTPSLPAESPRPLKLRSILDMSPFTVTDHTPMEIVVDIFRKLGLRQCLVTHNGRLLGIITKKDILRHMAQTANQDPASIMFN

CNE2Z [6] = assay: Induction of apoptosis in human CNE2Z cells assessed as expression of caspase-3 at 1 uM after 24 hrs by annexin V-FITC/propidium iodide staining-based flow cytometric analysis in presence of tamoxifen, NPPB, ClC-3 siRNA; assay type: functional, cell-based
CNE2Z [7] = assay: Induction of apoptosis in human CNE2Z cells assessed as induction of PARP cleavage at 1 uM after 24 hrs by annexin V-FITC/propidium iodide staining-based flow cytometric analysis in presence of tamoxifen, NPPB, ClC-3 siRNA; assay type: functional, cell-based
CNE2Z [8] = assay: Induction of apoptosis in human CNE2Z cells assessed as increase in apoptotic cell level at 1 to 10 uM after 24 hrs by annexin V-FITC/propidium iodide staining-based flow cytometric analysis in presence of tamoxifen, NPPB, ClC-3 siRNA; assay type: functional
CNE2Z [9] = assay: Induction of apoptosis in human CNE2Z cells assessed as activation of caspase-3 at 1 uM after 24 hrs by annexin V-FITC/propidium iodide staining-based flow cytometric analysis; assay type: functional, cell-based
CNE2Z [10] = assay: Induction of apoptosis in human CNE2Z cells assessed as induction of PARP cleavage at 1 uM after 24 hrs by annexin V-FITC/propidium iodide staining-based flow cytometric analysis; assay type: functional, cell-based
CNE2Z [11] = assay: Induction of apoptosis in human CNE2Z cells assessed as increase in apoptotic cell level at 1 to 10 uM after 24 hrs by annexin V-FITC/propidium iodide staining-based flow cytometric analysis; assay type: functional
[12] = Cell cycle arrest in human CNE2Z cells assessed as accumulation at sub-G1 phase at 10 uM after 24 hrs by propidium iodide staining-based flow cytometric analysis in presence of ClC-3 siRNA (reference value: 1.3%); assay type: functional
[13] = Cell cycle arrest in human CNE2Z cells assessed as accumulation at sub-G1 phase at 5 uM after 24 hrs by propidium iodide staining-based flow cytometric analysis in presence of ClC-3 siRNA (reference value: 1.3%); assay type: functional
[14] = Cell cycle arrest in human CNE2Z cells assessed as accumulation at sub-G1 phase at 1 uM after 24 hrs by propidium iodide staining-based flow cytometric analysis in presence of ClC-3 siRNA (reference value: 1.3%); assay type: functional
[15] = Cell cycle arrest in human CNE2Z cells assessed as accumulation at sub-G1 phase at 10 uM after 24 hrs by propidium iodide staining-based flow cytometric analysis in presence of NPPB (reference value: 2%); assay type: functional
[16] = Cell cycle arrest in human CNE2Z cells assessed as accumulation at sub-G1 phase at 5 uM after 24 hrs by propidium iodide staining-based flow cytometric analysis in presence of NPPB (reference value: 2%); assay type: functional
[17] = Cell cycle arrest in human CNE2Z cells assessed as accumulation at sub-G1 phase at 1 uM after 24 hrs by propidium iodide staining-based flow cytometric analysis in presence of NPPB (reference value: 2%); assay type: functional
[18] = Cell cycle arrest in human CNE2Z cells assessed as accumulation at sub-G1 phase at 10 uM after 24 hrs by propidium iodide staining-based flow cytometric analysis in presence of tamoxifen (reference value: 1.5%); assay type: functional
[19] = Cell cycle arrest in human CNE2Z cells assessed as accumulation at sub-G1 phase at 5 uM after 24 hrs by propidium iodide staining-based flow cytometric analysis in presence of tamoxifen (reference value: 1.5%); assay type: functional
[20] = Cell cycle arrest in human CNE2Z cells assessed as accumulation at sub-G1 phase at 1 uM after 24 hrs by propidium iodide staining-based flow cytometric analysis in presence of tamoxifen (reference value: 1.5%); assay type: functional
[21] = Cell cycle arrest in human CNE2Z cells assessed as accumulation at sub-G1 phase at 10 uM after 24 hrs by propidium iodide staining-based flow cytometric analysis (reference value: 1.1%); assay type: functional
[22] = Cell cycle arrest in human CNE2Z cells assessed as accumulation at sub-G1 phase at 5 uM after 24 hrs by propidium iodide staining-based flow cytometric analysis (reference value: 1.1%); assay type: functional
[23] = Upregulation of ClC-3 protein expression in human CNE2Z cells after 24 hrs by Western blot analysis; assay type: functional, cell-based
[24] = Cytotoxicity against SV40-transformed human NP69 cells assessed as cell viability after 48 hrs by MTT assay; assay type: cell-based; details: NP69, 48 h
[25] = Cell cycle arrest in human CNE2Z cells assessed as accumulation at sub-G1 phase at 1 uM after 24 hrs by propidium iodide staining-based flow cytometric analysis (reference value: 1.1%); assay type: functional
[26] = target: T1, H(+)/Cl(-) exchange transporter 3 (Homo sapiens); assay: Activation of ClC-3 in human CNE2Z cells assessed as increase in chloride current in outward and inward direction at +80mV holding potential at 1 uM by whole-cell patch clamp method; assay type: cell-based
[27] = Cell cycle arrest in human CNE2Z cells assessed as accumulation at sub-G1 phase at 50 uM after 24 hrs by propidium iodide staining-based flow cytometric analysis in presence of ClC-3 siRNA (reference value: 1.3%); assay type: functional
[28] = Cell cycle arrest in human CNE2Z cells assessed as accumulation at sub-G1 phase at 50 uM after 24 hrs by propidium iodide staining-based flow cytometric analysis in presence of NPPB (reference value: 2%); assay type: functional
[29] = Cell cycle arrest in human CNE2Z cells assessed as accumulation at sub-G1 phase at 50 uM after 24 hrs by propidium iodide staining-based flow cytometric analysis in presence of tamoxifen (reference value: 1.5%); assay type: functional
[30] = Cell cycle arrest in human CNE2Z cells assessed as accumulation at sub-G1 phase at 50 uM after 24 hrs by propidium iodide staining-based flow cytometric analysis (reference value: 1.1%); assay type: functional
CNE2Z [31] = assay: Induction of apoptosis in human CNE2Z cells assessed as activation of caspase-8 at 1 to 50 uM after 24 hrs by luminometric analysis; assay type: functional, cell-based
CNE2Z [32] = assay: Induction of apoptosis in human CNE2Z cells assessed as activation of caspase-3/7 at 1 to 50 uM after 24 hrs by luminometric analysis; assay type: functional, cell-based

SMILES | IC50 (H22) [µM] | IC50 (CCRF S-180) [µM] | IC50 (HepG2 [1]) [µM] | IC50 [2] [µM] | IC50 (HepG2 [3]) [µM] | IC50 [4] [µM] | Activity [5] | also measured
C[C@]12CC[C@H]3[C@@H](CC[C@@H]4C[C@@H](O)CC[C@@]43C=O)[C@]13O[C@@H]3C[C@@H]2c1ccc(=O)oc1 | > 50 | > 50 | > 100 | 26.5 | > 100 | 15.2 | – | –
C[C@]12CC[C@H](O)C[C@H]1CC[C@@H]1[C@@H]2CC[C@]2(C)[C@@H](c3ccc(=O)oc3)[C@@H](O)C[C@]12O [DESACETYLBUFOTALIN] | > 50 | > 50 | 2.6 | 1.77 | 3.58 | 4.89 | Active | –
C[C@]12CC[C@H](OC(=O)CCCCCCC(=O)O)C[C@H]1CC[C@@H]1[C@@H]2CC[C@]2(C)[C@@H](c3ccc(=O)oc3)CC[C@]12O | > 50 | > 50 | > 100 | 7.38 | > 100 | 4.99 | – | –
COC(=O)CCCCCCC(=O)O[C@H]1CC[C@@]2(C)[C@H](CC[C@@H]3[C@@H]2CC[C@]2(C)[C@@H](c4ccc(=O)oc4)CC[C@]32O)C1 | > 50 | > 50 | 2.38 | 2.87 | 3.18 | 1.72 | Active | –
C[C@]12CC[C@H](O)C[C@H]1CC[C@@H]1[C@@H]2CC[C@]2(C)[C@@H](c3ccc(=O)oc3)CC[C@]12O [BUFALIN] | > 50 | > 50 | 0.345 | 0.46 | 0.589 | 0.279 | – | Activity (CNE2Z [6]): inactive; Activity (CNE2Z [7]): inactive; Activity (CNE2Z [8]): inactive; Activity (CNE2Z [9]): Active; Activity (CNE2Z [10]): Active; Activity (CNE2Z [11]): 35.2%; Activity [12]: 40.9%; Activity [13]: 31.7%; Activity [14]: 21.5%; Activity [15]: 42.7%; Activity [16]: 33.9%; Activity [17]: 23.1%; Activity [18]: 43.9%; Activity [19]: 36.9%; Activity [20]: 26.5%; Activity [21]: 59.1%; Activity [22]: 50.5%; Activity [23]: Dose-dependent effect; IC50 [24]: > 25 µM; Activity [25]: 39.1%
CC(=O)O[C@H]1[C@H]2O[C@]23[C@@H]2CC[C@@H]4C[C@@H](O)CC[C@]4(C)[C@H]2CC[C@]3(C)[C@H]1c1ccc(=O)oc1 [CINOBUFAGIN] | > 50 | > 50 | 1.71 | 0.39 | 2.35 | 0.31 | – | –
CC(=O)O[C@@H]1C[C@H](c2ccc(=O)oc2)[C@@]2(C)CC[C@H]3[C@@H](CC[C@@H]4C[C@@H](O)CC[C@@]43C)[C@@]12O | > 50 | > 50 | > 100 | > 100 | > 100 | > 100 | inactive | Activity [26]: inactive; Activity [27]: 3.4%; Activity [28]: 3.8%; Activity [29]: 3.9%; Activity [30]: 4%; Activity (CNE2Z [31]): inactive; Activity (CNE2Z [32]): inactive; Activity (CNE2Z [11]): inactive; Activity [13]: 3.3%; Activity [14]: 3%; Activity [16]: 3.5%; Activity [17]: 2.8%; Activity [19]: 3.5%; Activity [20]: 2.2%; Activity [22]: 3.1%; Activity [23]: inactive; Activity [25]: 1.3%
